Measured values published in ChEMBL document CHEMBL5291721, “A preclinical secondary pharmacology resource illuminates target-adverse drug reaction associations of marketed drugs” (Nat Commun, 2023).

Columns and labels:
[1] = target: T1, Alpha-2A adrenergic receptor (Homo sapiens, UniProt P08913); type: functional, cell-based
T1 sequence (P08913 whole entry): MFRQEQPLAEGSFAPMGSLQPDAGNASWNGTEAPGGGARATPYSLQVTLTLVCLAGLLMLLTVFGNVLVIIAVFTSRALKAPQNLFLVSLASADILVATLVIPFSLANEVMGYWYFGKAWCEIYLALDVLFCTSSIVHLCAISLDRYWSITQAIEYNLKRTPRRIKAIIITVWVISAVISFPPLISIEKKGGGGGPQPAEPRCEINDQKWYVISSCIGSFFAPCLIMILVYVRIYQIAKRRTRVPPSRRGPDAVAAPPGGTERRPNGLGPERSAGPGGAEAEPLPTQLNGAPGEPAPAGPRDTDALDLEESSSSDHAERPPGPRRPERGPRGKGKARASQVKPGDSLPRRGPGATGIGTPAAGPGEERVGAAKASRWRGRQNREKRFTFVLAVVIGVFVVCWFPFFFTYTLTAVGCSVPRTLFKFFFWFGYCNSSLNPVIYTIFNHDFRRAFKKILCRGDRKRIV

Vasopressin V2 receptor = Vasopressin V2 receptor (Homo sapiens, UniProt P30518)
D(1A) dopamine receptor = D(1A) dopamine receptor (Homo sapiens, UniProt P21728); type: functional, cell-based
Histamine H3 receptor = Histamine H3 receptor (Homo sapiens, UniProt Q9Y5N1)
[2] = target: Neuronal acetylcholine receptor subunit alpha-4 (Homo sapiens, UniProt P43681)
[3] = target: T2, Alpha-1A adrenergic receptor (Homo sapiens, UniProt P35348); type: functional, cell-based
T2 sequence (P35348 whole entry): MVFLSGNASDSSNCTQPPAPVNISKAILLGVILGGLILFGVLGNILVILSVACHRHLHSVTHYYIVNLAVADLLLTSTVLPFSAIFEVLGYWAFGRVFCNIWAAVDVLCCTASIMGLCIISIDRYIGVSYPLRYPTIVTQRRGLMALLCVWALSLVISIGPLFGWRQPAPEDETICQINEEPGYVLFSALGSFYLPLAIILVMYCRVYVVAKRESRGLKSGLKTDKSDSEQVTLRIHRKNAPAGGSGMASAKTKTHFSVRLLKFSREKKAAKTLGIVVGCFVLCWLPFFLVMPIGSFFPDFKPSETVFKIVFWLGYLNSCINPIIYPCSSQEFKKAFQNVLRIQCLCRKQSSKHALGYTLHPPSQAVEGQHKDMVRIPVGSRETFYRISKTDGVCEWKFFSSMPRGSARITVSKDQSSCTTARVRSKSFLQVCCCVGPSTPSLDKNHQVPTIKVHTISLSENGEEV

[4] = target: T3, Equilibrative nucleoside transporter 1 (Homo sapiens, UniProt Q99808)
T3 sequence (Q99808 whole entry): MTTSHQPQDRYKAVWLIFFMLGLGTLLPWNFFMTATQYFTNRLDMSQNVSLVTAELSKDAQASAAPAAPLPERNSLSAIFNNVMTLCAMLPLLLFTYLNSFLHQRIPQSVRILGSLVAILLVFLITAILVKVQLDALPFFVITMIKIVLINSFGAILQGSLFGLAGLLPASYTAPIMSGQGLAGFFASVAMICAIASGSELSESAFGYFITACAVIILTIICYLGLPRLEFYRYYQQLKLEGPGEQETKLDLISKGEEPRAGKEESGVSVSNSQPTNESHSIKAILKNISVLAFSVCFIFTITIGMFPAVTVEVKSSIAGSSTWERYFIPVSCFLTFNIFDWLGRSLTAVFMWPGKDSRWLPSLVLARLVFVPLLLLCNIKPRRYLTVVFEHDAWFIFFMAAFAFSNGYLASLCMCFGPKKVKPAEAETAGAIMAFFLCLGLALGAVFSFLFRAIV

[5] = target: Beta-1 adrenergic receptor (Homo sapiens, UniProt P08588); type: functional
[6] = target: 5-hydroxytryptamine receptor 2B (Homo sapiens, UniProt P41595); type: functional, cell-based
[7] = target: T4, 5-hydroxytryptamine receptor 1A (Homo sapiens, UniProt P08908); type: functional, cell-based
T4 sequence (P08908 whole entry): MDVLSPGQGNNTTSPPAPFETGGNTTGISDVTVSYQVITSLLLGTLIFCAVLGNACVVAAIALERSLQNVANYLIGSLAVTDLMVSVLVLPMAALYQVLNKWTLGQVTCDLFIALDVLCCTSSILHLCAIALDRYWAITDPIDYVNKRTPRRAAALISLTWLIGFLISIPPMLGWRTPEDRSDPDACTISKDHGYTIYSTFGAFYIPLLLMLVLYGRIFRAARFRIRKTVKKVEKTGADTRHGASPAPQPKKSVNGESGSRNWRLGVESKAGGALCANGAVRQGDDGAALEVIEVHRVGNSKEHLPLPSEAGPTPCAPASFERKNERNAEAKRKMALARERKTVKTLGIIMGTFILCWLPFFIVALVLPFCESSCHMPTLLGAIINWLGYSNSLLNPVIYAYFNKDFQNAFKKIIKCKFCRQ
Note: assay procedure not described here.

Chain of 5-hydroxytryptamine receptor 2B (P41595 whole entry): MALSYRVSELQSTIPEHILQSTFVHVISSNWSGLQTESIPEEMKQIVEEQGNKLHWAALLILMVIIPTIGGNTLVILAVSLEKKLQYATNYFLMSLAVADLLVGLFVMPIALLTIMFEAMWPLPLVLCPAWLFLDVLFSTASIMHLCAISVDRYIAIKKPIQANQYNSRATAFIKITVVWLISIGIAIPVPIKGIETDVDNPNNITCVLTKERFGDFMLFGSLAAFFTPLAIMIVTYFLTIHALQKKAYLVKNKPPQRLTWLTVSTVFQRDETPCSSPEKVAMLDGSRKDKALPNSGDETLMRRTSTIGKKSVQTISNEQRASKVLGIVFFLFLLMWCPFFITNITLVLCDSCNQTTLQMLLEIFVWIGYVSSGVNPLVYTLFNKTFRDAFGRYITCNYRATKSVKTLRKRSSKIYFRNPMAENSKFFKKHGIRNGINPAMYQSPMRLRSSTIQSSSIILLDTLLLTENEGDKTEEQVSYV
Chain of D(1A) dopamine receptor (P21728 whole entry): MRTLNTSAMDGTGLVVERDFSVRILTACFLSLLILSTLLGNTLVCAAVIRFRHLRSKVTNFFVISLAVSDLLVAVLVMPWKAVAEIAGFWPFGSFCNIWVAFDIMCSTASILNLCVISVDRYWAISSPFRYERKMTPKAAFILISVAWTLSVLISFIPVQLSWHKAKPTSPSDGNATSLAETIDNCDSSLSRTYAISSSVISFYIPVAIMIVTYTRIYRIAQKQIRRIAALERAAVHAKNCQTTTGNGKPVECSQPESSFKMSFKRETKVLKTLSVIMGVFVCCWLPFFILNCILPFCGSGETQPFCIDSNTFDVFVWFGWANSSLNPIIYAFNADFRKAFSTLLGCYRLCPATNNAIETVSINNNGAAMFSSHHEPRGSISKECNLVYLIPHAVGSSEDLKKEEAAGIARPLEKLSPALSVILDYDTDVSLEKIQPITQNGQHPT
Chain of Histamine H3 receptor (Q9Y5N1 whole entry): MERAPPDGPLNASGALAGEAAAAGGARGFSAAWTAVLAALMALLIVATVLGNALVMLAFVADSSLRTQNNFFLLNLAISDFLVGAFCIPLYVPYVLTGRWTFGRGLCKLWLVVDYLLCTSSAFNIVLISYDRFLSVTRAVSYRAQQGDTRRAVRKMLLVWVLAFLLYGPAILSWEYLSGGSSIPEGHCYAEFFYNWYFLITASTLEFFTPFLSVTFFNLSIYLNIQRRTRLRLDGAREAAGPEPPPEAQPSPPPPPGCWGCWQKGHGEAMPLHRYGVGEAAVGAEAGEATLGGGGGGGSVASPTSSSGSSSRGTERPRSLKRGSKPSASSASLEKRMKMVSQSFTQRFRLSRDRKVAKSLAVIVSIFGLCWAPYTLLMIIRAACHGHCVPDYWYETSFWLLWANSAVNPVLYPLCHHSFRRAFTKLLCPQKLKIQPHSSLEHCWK
Chain of Neuronal acetylcholine receptor subunit alpha-4 (P43681 whole entry): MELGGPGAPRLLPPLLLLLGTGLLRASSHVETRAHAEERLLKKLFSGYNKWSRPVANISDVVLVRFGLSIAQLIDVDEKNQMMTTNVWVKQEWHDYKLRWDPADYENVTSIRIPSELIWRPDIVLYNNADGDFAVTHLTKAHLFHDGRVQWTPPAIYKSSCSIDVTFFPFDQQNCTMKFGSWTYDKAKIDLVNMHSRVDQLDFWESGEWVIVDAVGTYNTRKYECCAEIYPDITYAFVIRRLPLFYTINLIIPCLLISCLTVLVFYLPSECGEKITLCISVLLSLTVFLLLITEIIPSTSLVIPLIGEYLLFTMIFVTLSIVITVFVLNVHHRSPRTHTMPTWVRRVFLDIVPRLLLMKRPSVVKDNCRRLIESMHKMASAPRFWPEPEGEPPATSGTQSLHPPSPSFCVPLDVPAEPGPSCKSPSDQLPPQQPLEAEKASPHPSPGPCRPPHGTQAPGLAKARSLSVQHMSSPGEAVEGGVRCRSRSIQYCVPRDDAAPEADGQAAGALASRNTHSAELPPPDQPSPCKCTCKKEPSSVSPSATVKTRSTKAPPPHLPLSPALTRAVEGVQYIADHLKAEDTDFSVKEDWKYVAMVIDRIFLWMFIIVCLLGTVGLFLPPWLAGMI
Chain of Beta-1 adrenergic receptor (P08588 whole entry): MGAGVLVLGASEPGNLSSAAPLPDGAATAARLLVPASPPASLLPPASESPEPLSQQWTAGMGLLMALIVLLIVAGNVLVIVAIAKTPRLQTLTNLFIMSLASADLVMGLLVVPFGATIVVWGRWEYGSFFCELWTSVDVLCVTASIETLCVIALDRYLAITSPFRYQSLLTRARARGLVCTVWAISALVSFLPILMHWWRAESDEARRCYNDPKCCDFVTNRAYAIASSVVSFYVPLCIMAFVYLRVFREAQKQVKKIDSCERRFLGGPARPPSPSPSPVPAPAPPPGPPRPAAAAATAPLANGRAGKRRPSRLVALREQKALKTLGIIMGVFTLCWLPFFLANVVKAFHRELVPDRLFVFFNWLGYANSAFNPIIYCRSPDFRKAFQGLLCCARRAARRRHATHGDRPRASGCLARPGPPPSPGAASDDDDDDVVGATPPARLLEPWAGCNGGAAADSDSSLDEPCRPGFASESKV
Chain of Vasopressin V2 receptor (P30518 whole entry): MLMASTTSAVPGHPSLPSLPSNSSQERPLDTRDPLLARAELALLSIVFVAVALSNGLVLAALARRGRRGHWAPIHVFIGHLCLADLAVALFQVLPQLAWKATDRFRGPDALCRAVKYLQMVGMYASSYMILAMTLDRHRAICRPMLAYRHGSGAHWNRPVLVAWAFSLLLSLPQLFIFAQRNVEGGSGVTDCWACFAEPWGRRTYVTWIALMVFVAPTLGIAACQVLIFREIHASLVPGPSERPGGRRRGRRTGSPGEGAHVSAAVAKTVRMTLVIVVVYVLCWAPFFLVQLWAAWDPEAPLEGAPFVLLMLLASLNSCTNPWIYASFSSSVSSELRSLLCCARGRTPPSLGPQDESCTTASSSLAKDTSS

SMILES | AC50 [1] [µM] | AC50 (Vasopressin V2 receptor) [µM] | AC50 (D(1A) dopamine receptor) [µM] | AC50 (Histamine H3 receptor) [µM] | AC50 [2] [µM] | AC50 [3] [µM] | AC50 [4] [µM] | AC50 [5] [µM] | AC50 [6] [µM] | AC50 [7] [µM]
COc1ccc2c(c1)c(CC(=O)OCC(=O)O)c(C)n2C(=O)c1ccc(Cl)cc1 [ACEMETACIN] | > 30 | > 30 | > 30 | > 30 | > 30 | > 30 | > 30 | > 30 | > 30 | > 30
CC(C)c1c(C(=O)Nc2ccccc2)c(-c2ccccc2)c(-c2ccc(F)cc2)n1CC[C@@H](O)C[C@@H](O)CC(=O)O [ATORVASTATIN] | > 10 | > 30 | – | > 10 | > 10 | > 30 | > 30 | > 10 | – | > 10
CN1C(=O)COc2c(C(=O)NC3CN4CCC3CC4)cc(Cl)cc21 (stereo not given) [AZASETRON] | > 30 | > 30 | > 30 | > 30 | > 30 | > 30 | > 30 | > 30 | > 30 | > 30
Cc1cc2c(OCC(CNC(C)(C)C)OC(=O)c3ccccc3)cccc2[nH]1 (stereo not given) [BOPINDOLOL] | > 30 | > 30 | > 30 | > 30 | > 30 | > 30 | > 30 | 0.0048 | 19 | > 30
CCCCN1CCCCC1C(=O)Nc1c(C)cccc1C (stereo not given) [BUPIVACAINE] | > 30 | > 30 | > 30 | > 30 | > 30 | – | – | > 30 | > 30 | > 30
CC(C)(Oc1ccc(C2CC2(Cl)Cl)cc1)C(=O)O (stereo not given) [CIPROFIBRATE] | > 30 | > 30 | > 30 | > 30 | > 30 | > 30 | > 30 | > 30 | > 30 | > 30
Cc1c(O)c(=O)ccn1C [DEFERIPRONE] | > 30 | > 30 | > 30 | > 30 | > 30 | > 30 | > 30 | > 30 | > 30 | > 30
CC(=O)O[C@@]12CO[C@@H]1C[C@H](O)[C@@]1(C)C(=O)[C@H](O)C3=C(C)[C@@H](OC(=O)[C@H](O)[C@@H](NC(=O)OC(C)(C)C)c4ccccc4)C[C@@](O)([C@@H](OC(=O)c4ccccc4)[C@H]21)C3(C)C [DOCETAXEL ANHYDROUS] | > 30 | > 30 | > 30 | > 30 | > 30 | – | > 30 | > 30 | > 30 | > 30
CCNC(C)Cc1cccc(C(F)(F)F)c1 (stereo not given) [FENFLURAMINE] | – | > 30 | – | > 10 | > 10 | – | > 30 | – | – | –
COc1c(N2CCNC(C)C2)c(F)cc2c(=O)c(C(=O)O)cn(C3CC3)c12 (stereo not given) [GATIFLOXACIN] | > 10 | > 10 | > 30 | – | > 10 | – | > 10 | > 10 | > 10 | > 10
CCN1CCC[C@H]1CNC(=O)c1cc(S(N)(=O)=O)ccc1OC [LEVOSULPIRIDE] | > 10 | > 30 | > 30 | > 10 | > 10 | > 30 | – | > 30 | > 10 | > 30
Cc1cccc(C)c1NC(=O)C1CCCCN1C (stereo not given) [MEPIVACAINE] | > 30 | > 30 | > 30 | > 30 | > 30 | > 30 | > 30 | > 30 | > 30 | > 30
COc1ccccc1OCC(O)COC(N)=O (stereo not given) [METHOCARBAMOL] | > 10 | > 10 | > 10 | – | > 10 | – | > 10 | > 10 | > 10 | > 10
C[C@]12CCC(=O)C=C1CC[C@@H]1[C@@H]2CC[C@@]2(C)[C@H]1CC[C@]2(C)O [METHYLTESTOSTERONE] | > 30 | > 30 | > 30 | > 30 | > 30 | 27 | > 30 | > 30 | 22 | > 30
NC(=O)C[S+]([O-])C(c1ccccc1)c1ccccc1 (stereo not given) [MODAFINIL] | > 10 | > 30 | > 10 | > 10 | > 10 | > 30 | > 30 | > 10 | > 10 | > 10
COc1c(C)c2c(c(O)c1C/C=C(\C)CCC(=O)OCCN1CCOCC1)C(=O)OC2 [MYCOPHENOLATE MOFETIL] | > 30 | > 30 | > 30 | > 30 | > 30 | > 30 | > 30 | > 30 | > 30 | > 30
CCN(CC)CCOC(=O)c1ccc(N)cc1 [PROCAINE] | > 10 | > 30 | > 10 | 8.7 | > 10 | > 30 | > 30 | > 10 | > 10 | > 30
CCCOc1ccc(C(=O)OCCN(CC)CC)cc1N [PROPARACAINE] | > 30 | > 30 | > 30 | 1.3 | > 30 | > 30 | > 30 | > 30 | > 30 | > 30
Nc1nc2ccc(OC(F)(F)F)cc2s1 [RILUZOLE] | > 30 | > 30 | > 30 | > 30 | > 30 | > 30 | > 30 | > 30 | > 30 | > 30
O=C1NCCN1CCN1CCC(c2cn(-c3ccc(F)cc3)c3ccc(Cl)cc23)CC1 [SERTINDOLE] | – | 27 | > 30 | > 30 | 17 | 0.64 | > 30 | – | 0.6 | –
CN[C@@H]1[C@H](O)[C@H](NC)[C@H]2O[C@@]3(O)C(=O)C[C@@H](C)O[C@H]3O[C@@H]2[C@H]1O [SPECTINOMYCIN] | > 10 | > 10 | > 10 | > 10 | > 10 | – | > 10 | > 10 | > 30 | > 30
